row,melting point [°C],SMILES
1,187 to 191,O=C1Cc2cccc(Oc3ccccn3)c2N1
2,195 to 196,CCCCS(=O)(=O)NC1Cc2ccc(-c3ccc(=O)[nH]n3)cc2C1 (stereo unspecified)
3,226 to 230,Cc1nc2cnccc2n1-c1ccc(CC(=O)O)cc1
4,251 to 253,O=C1c2ccc(F)cc2C(=O)c2cc3cc(F)ccc3cc21
5,192 to 193,O=C(O)Cc1nn(Cc2nc3cc(C(F)(F)F)ccc3s2)c(=O)c2nccnc12
6,138 to 139,COC(=O)C1(NC(=O)Cc2cc(C(C)=O)ccc2C)CCN(OC)CC1
7,200 to 201,COC(=O)c1ccc(OCC2CN(c3ccc([N+](=O)[O-])cc3)C(=O)O2)cc1 (stereo unspecified)
8,45 to 46,Cc1cc(SCc2sc(-c3ccc(F)cc3)nc2C)ccc1OCC(=O)O
9,228 to 230,Nc1ccc(N2C(=O)c3ccc(Cl)cc3C2=O)c(CO)c1
10,170 to 173,Cn1cc(C2=C(c3cn(CCCSC4=NCCS4)c4ccccc34)C(=O)NC2=O)c2ccccc21
11,82 to 86,COc1cc(C(=O)c2ccccc2N)ccn1
12,180,O=C(O)C1=Cc2ccc(C(F)(F)F)cc2Oc2ccccc21
13,212 to 215,Cc1ccc(C(C)(C)C)c(O)c1-c1nc2cc(C#N)ccc2[nH]1
14,144 to 146,CC(O)c1ccc(Cl)c(S(N)(=O)=O)c1 (stereo unspecified)
15,194 to 196,O=C(O)Cc1c(C(=O)c2ccccc2)[nH]c2ccccc12
16,232 to 233,CC1(C)Nc2ccc(Br)cc2C(NC(=NC#N)Nc2ccccc2)C1O (stereo unspecified)
17,196 to 197,COc1cc(C(=O)c2cnc3ccccc3c2)ccc1O
18,190 to 195,CC(C)(C)OC(=O)c1ccc(C=Cc2cnc(N)c(C#N)c2)cc1
19,126 to 128,CCN(CC)CCn1nnnc1-c1ccc2oc3ncccc3c(=O)c2c1
20,130 to 132,N#Cc1c(N2CCCCC2)cc(-c2ccc(F)cc2)c2c1Cc1ccccc1-2
21,49 to 51,Oc1ccc(OCc2ccccc2)c(Cl)c1
22,211 to 212,O=C1CCC(c2ccccc2O)=NN1
23,45,O=C1c2ccc(OC(c3ccccc3)c3ccccc3)cc2OCC1Cc1cccnc1 (stereo unspecified)
24,186 to 187,Nc1cc(Oc2ccc3c(c2)CCN3C(=O)Nc2cccc(C(F)(F)F)c2)ncn1
25,76 to 78,Clc1ccc(CC2(c3cccnc3)OCCO2)c(Cl)c1
26,147 to 148,CC(C)CC1(C(CCNC(=O)c2ccc(F)c(F)c2)C(=O)OC(C)(C)C)CCN(CCc2ccccc2)C1=O (stereo unspecified)
27,64 to 66,O=S(=O)(Cl)c1ccc(F)c2nonc12

row,melting point [°C],SMILES
1,239 to 241,O=C1NC(=O)C2(CCOc3ccc(F)cc32)N1 (stereo unspecified)
2,205 to 206,COC(=O)Cn1c(=O)[nH]c2ccccc2c1=O
3,141,Cc1nc2c(OCc3ccccc3)cccn2c(=O)c1CCCl
4,183 to 184,CNc1nn(-c2ccc(C)c3c2OC(C)(C)C3)c(=O)o1
5,203 to 207,CCN(CC)CCCCNc1ncc2c(n1)NC(=O)N(c1cc(OC)cc(OC)c1)C2
6,243 to 244,O=C(Nc1nnn[nH]1)c1oc2ccc(Cl)cc2c1OCC1CC1
7,206 to 207,COC(=O)C1=C(C)NC(C#N)=C(C(=O)OC)C1c1cccc([N+](=O)[O-])c1 (stereo unspecified)
8,127 to 128,O=c1c(Cl)c(N2CCOCC2)oc2ccccc12
9,268 to 270,Cn1cc(C(=O)O)c(=O)c2cc3cc(F)c(N4CCNC(c5cccs5)C4)cc3nc21 (racemic)
10,170 to 172,COc1ccc(NC(=O)/C=C/c2ccc(N)c(F)c2)cc1N
11,286 to 288,O=C(Nc1ccc2nc(S)[nH]c2c1)C(=O)N1CCC(Cc2ccc(F)cc2)CC1
12,84.5 to 86.5,CCCC[C@H](F)C(=O)N[C@@H](C)c1ccc([N+](=O)[O-])cc1
13,296 to 298,O=c1c2c(c3cccnc3n1-c1ccccc1)OCC(O)C2 (stereo unspecified)
14,128 to 130,O=C(COc1ccc(Cl)cc1)c1ccc(Br)s1
15,70 to 95,O=C(NC1(C(=O)O)CCc2cc(O)ccc2C1)C(F)(F)F (stereo unspecified)
16,114 to 115,COC(=O)c1ccc(CSC)nc1C1=NC(C)(C(C)C)C(=O)N1 (stereo unspecified)
17,214 to 215,Cc1ccc(NC(=O)c2ccsc2)cc1-c1nc(N(C)C)nc2c1CNC(=O)N2c1c(F)cccc1F
18,190 to 192,Cc1cc2c(-c3ccccc3Cl)c(NC(=O)Nc3cccc([N+](=O)[O-])c3)c(=O)n(C)c2cc1C
19,161 to 162,CC(=O)OC1(C)C=CC2=NC(c3cc(C)c(O)c(C)c3)=CC2=C1 (stereo unspecified)
20,207,Cc1nc2nc(-c3ccc(C4(N)CCC4)cc3)c(-c3ccccc3)cn2n1
21,127,O=S1(=O)c2cccc3cccc(c23)N1CCN1CCC(CC2CCc3ccccc32)CC1 (stereo unspecified)
22,290,O=C(O)c1cn(C2CC2)c2cc(N3CC4CC4C3)c(F)cc2c1=O (stereo unspecified)
23,253,Fc1ccc(Cn2c(NC3CCN(CCNc4nc5ccccc5[nH]4)CC3)nc3ccccc32)cc1
24,> 250,NS(=O)(=O)c1ccc(NN=C2C(=O)Nc3cc(Br)ccc32)cc1
25,262 to 265,O=C(O)c1cc2cccc(Cl)c2s1
26,116,COC(=O)c1ccc(F)cc1NS(C)(=O)=O
27,152 to 153,O=c1oc(-c2cccc(C(F)(F)F)c2)cc(O)c1SCc1ccccc1

# The next lines start with the compound.
row,SMILES,melting point [°C]
1,OCc1cccc(Nc2nc(Oc3ccccc3)nc(Oc3ccccc3)n2)c1,49 to 52
2,CCCC(=O)Nc1ccc(Sc2ccccc2)cc1NC(=NC(=O)OC)NC(=O)OC,164 to 166
3,CCCCCCCCOC(=O)Nc1ccccc1C1Cc2ccccc2N1 (stereo unspecified),99 to 102
4,Cn1ccc2c(ccc3[nH]cc(CCNCc4ccccc4)c32)c1=O,186 to 192
5,CC(C)COC(=O)Sc1ccc(-c2ccccc2)cc1,78 to 79
6,COc1ccc(C(=O)Nc2ccc3ccc(-c4ccccc4)nc3n2)cc1,187
7,CCCCCCCCCCNC(=O)c1ccc(N)cc1,117 to 119
8,CCOP(=O)(/C=C/c1cn(-c2ccccc2)nc1OCc1ccc(OCc2nc(-c3ccc(OC)c(C(=O)O)c3)oc2C)c(OC)c1)OCC,171 to 172
9,CC(O)(C(O)CI)C(O)CI (stereo unspecified),105 to 106
10,Clc1ccc(Sc2ccc(-c3ccccc3)s2)cc1,85 to 87
11,CNn1cccc1C(=O)c1ccccc1Cl,56 to 58
12,CCOP(=O)(CCOCn1cnc2c(OC)ncnc21)OCC,140 to 141
13,CCCc1c(OCc2ccc(C(=O)OC)cc2)ccc(C(C)=O)c1O,99.5 to 100
14,CNC(=O)[C@H](C)C[C@H](O)[C@H](CC1CCCCC1)NC(=O)[C@H](Cc1cscn1)NC(=O)[C@@H](CC(=O)N1CCOCC1)Cc1ccccc1,130 to 132
15,CC(C)(C)OC(=O)C(Nc1ccccc1)C(=O)OC(C)(C)C,94
16,O=C(OCc1ccccc1)C(CO)N(C(=O)Cc1ccccc1)C(=O)OCc1ccccc1 (stereo unspecified),59 to 60
17,CSc1ccc2c(c1)C(SCCBr)Cc1ccccc1O2 (stereo unspecified),64 to 66
18,CCOC(=O)C(C)(C)Oc1ccc(-c2ccc(CCNC(=O)c3ccccc3)cc2)cc1,100
19,CCOC(=O)C(O)c1ccc(C2CCCCC2)cc1 (stereo unspecified),85 to 86
20,COc1ccc(-c2c(C(C)=O)c(CSc3nccn3C)nc3cc(OC)c(OC)cc23)cc1OC,175 to 176
21,CCc1nn(Cc2cc(O)n[nH]2)c(CC)c1Oc1cc(Cl)cc(Cl)c1,142 to 144
22,COc1cccc(C(O)C2c3ccccc3Cc3ccccc32)c1 (stereo unspecified),106
23,CCCn1nc2c(N)nc3ccccc3c2c1CC(C)(C)NC(=O)c1cccnc1,203 to 205
24,CCCCCCCCSCCCC(=O)O,33 to 34.5

row,SMILES,melting point [°C]
1,COC(=O)C(O)C(O)C(O)C(O)C(=O)OC (stereo unspecified),90.2 to 90.7
2,COc1cc(CO)nnc1OC,151 to 153
3,O=C(NCCSCc1ccccc1)c1cnccc1C(F)(F)F,86 to 88
4,FC(F)(F)c1cc(Cl)c(-n2ncc(-c3ncc[nH]3)n2)c(Cl)c1,282 to 283
5,CCOC(=O)c1oc(Cl)nc1C,55 to 58
6,O=C(NCCO)/C(=C/c1ccc(Cl)cc1)NC(=O)c1ccc(OCCC2CC2)cc1,143 to 145
7,CC(C)(C)c1cc(C(=O)Nc2cccc(OCc3cncc(Br)c3)c2)ccc1O,105 to 111
8,O=c1ccn(CCO)c(C(O)c2ccccc2OCc2ccccc2)c1OCc1ccccc1 (stereo unspecified),196 to 197
9,O=C(NCCO)c1cccc(-c2ncc3ccn(Cc4ccc(Cl)cc4Cl)c3n2)c1,194 to 195
10,CS(=O)c1nnc(-c2cc(C(C)(C)C)c(O)c(C(C)(C)C)c2)s1 (stereo unspecified),141
11,OCc1cn(Cc2ccc(OCc3ccccc3)cc2)cc1-c1ccccc1,122 to 123
12,Cn1ccc2c1Cc1nncn1C=C2,178
13,COc1ccc2cc([C@H](C)C(=O)OCCNC(=O)c3cccc(CO[N+](=O)[O-])c3)ccc2c1,92 to 94
14,CCOc1cccc(NC(=O)Nc2ccc(N3CCN(C(=O)Nc4ccc(OCCO)cc4C(F)(F)F)CC3)cc2)c1,108 to 110
15,c1ccc(-c2ccnc(Nc3cccc(-n4ccnc4)c3)n2)nc1,210 to 211
16,COC(=O)c1ccc(CN([C@@H](CO)Cc2ccccc2)S(=O)(=O)c2ccc(Cl)cc2)cc1,128 to 130
17,CCOC=Nc1c(S(=O)C(F)(F)F)c(C#N)nn1-c1c(Cl)cc(C(F)(F)F)cc1Cl (stereo unspecified),63
18,CC(C)C(NS(=O)(=O)c1ccc(-c2ccc(NC(=O)c3cc4cc(Br)ccc4o3)cc2)cc1)C(=O)O (stereo unspecified),263 to 265
19,CNC(=O)c1cc2nc(C(F)(F)F)ccc2c(Cl)c1NC(=O)c1cc(C(F)(F)F)nn1-c1ncccc1Cl,235 to 237
20,CC(=O)Nc1ccc(C(=S)NN)cc1,220 to 221
21,O=C1N[C@H](C(=O)NCCO[N+](=O)[O-])CO1,102 to 103
22,Nc1cc(Br)c(Br)cc1[N+](=O)[O-],198 to 199
23,CC(CCCCCOCCc1ccc(N(C)C)cc1)NCc1c(CO)ccc(O)c1CO (stereo unspecified),100 to 101

# Source: a melting point compilation (Tetko et al.; mined from patent text by program, amines drawn as free bases though some values may be those of a salt)
